The results in this text go back to ChEMBL document CHEMBL1131816, “Novel quinolizidine salicylamide influenza fusion inhibitors” (Bioorg Med Chem Lett, 1999).

The subject of one assay is Influenza A virus. Briefly: Cytotoxicity against A/WSN/33 strain (an H1N1 subtype) influenza virus in the plaque reduction assay. Format: functional.
Assay [1] in a line: Inhibitory activity against A/WSN/33 strain (an H1N1 subtype) influenza virus was measured by cell protection assay in MDBK cells. The class given is functional, cell-based, Bos taurus.
Assay [2] can be described thus: Inhibitory activity against A/WSN/33 strain (an H1N1 subtype) influenza virus was measured by cell protection assay in MDBK cells; Not active. Format: functional, cell-based, Bos taurus.
Assay [3] is described as follows: Inhibitory activity against A/WSN/33 strain (an H1N1 subtype) influenza virus was measured by cell protection assay in MDBK cells; Value ranges from 0.2-0.3 ug/mL. Format: functional, cell-based, Bos taurus.

Values after ≈ are worked out from the molar mass of the structure shown. Some results are limits rather than exact numbers.

What is called CC50 is the concentration giving 50% cytotoxicity. Low readings indicate harm at low concentration, high ones better tolerance by the cells. One may read the EC50 as the midpoint of the concentration-response curve. A low value points to greater potency. In turn, `C[C@@H]1CCC[C@@H]2C[C@@H](NC(=O)c3ccccc3N)CCN21` gave a CC50 with Influenza A virus greater than 100 µg/mL. In assay [1], this molecule gave a 50% effective concentration (EC50) of 5 µg/mL (≈ 17.4 µM).

`C[C@@H]1CCC[C@@H]2C[C@@H](NC(=O)c3cc(C(C)(C)C)ccc3O)CCN21` displayed a CC50 in the assay on Influenza A virus of 50 µg/mL (≈ 145 µM). Besides, in assay [2], the EC50 result is given as “Not Active”. Regarding `C[C@@H]1CCC[C@@H]2C[C@@H](NC(=O)c3ccccc3O)CCN21`, in the assay on Influenza A virus, the cytotoxic concentration (CC50) was greater than 100 µg/mL. This molecule showed an EC50 in assay [1] of 1.6 µg/mL (≈ 5.55 µM). Consider `C[C@@H]1CCC[C@@H]2C[C@@H](NC(=O)c3ccc(N)c(Cl)c3)CCN21`, for which the concentration giving a half-maximal response (EC50) result in assay [2] was “Not Active”. The molecule `C[C@@H]1CCC[C@@H]2C[C@@H](NC(=O)c3cc(Br)ccc3O)CCN21` came in with a CC50 in the assay with Influenza A virus greater than 100 µg/mL. The same molecule returned an EC50 in assay [1] of 0.8 µg/mL (≈ 2.18 µM). As for `C[C@@H]1CCC[C@@H]2C[C@@H](NC(=O)c3c(O)ccc4ccccc34)CCN21`, the CC50 in the assay with Influenza A virus was greater than 100 µg/mL. Further, in assay [2], the EC50 entry is reported as “Not Active”.

For `Cc1ccc(C(=O)N[C@H]2CCN3[C@H](CCC[C@H]3C)C2)c(O)c1`, the CC50 in the assay on Influenza A virus was greater than 100 µg/mL. Also, in assay [1], the EC50 came to 4 µg/mL (≈ 13.2 µM). In the assay on Influenza A virus, `COc1ccc(O)c(C(=O)N[C@H]2CCN3[C@H](CCC[C@H]3C)C2)c1` had a 50% cytotoxic concentration (CC50) of 100 µg/mL (≈ 314 µM). Besides, in assay [1], the concentration giving a half-maximal response (EC50) worked out at 0.6 µg/mL (≈ 1.88 µM). On to `C[C@@H]1CCC[C@@H]2C[C@@H](NC(=O)c3cc(I)ccc3O)CCN21`, for which, in the assay with Influenza A virus, it took 100 µg/mL (≈ 241 µM) to reach half-maximal cytotoxicity (CC50). For the same molecule, the half-maximal effective concentration (EC50) in assay [1] is 1 µg/mL (≈ 2.41 µM).

In turn, `C[C@@H]1CCC[C@@H]2C[C@@H](NC(=O)c3cc4c(cc3O)C(C)(C)CCC4(C)C)CCN21` had a cytotoxic concentration (CC50) with Influenza A virus of 8 µg/mL (≈ 20.1 µM). Besides, the EC50 entry in assay [2] is given as “Not Active”. The molecule `C[C@@H]1CCC[C@@H]2C[C@@H](NC(=O)c3cc(Cl)ccc3O)CCN21` displayed a half-maximal cytotoxic concentration (CC50) in the assay on Influenza A virus greater than 100 µg/mL. In addition, the EC50 in assay [1] came to 0.8 µg/mL (≈ 2.48 µM). As for `C[C@@H]1CCC[C@@H]2C[C@@H](NC(=O)c3cc(N=[N+]=[N-])ccc3O)CCN21`, the CC50 in the assay on Influenza A virus is greater than 100 µg/mL. Moreover, the EC50 in assay [1] is 0.5 µg/mL (≈ 1.52 µM). Molecule `C[C@@H]1CCC[C@@H]2C[C@@H](NC(=O)c3cc(F)ccc3O)CCN21` gave a cytotoxic concentration (CC50) with Influenza A virus greater than 100 µg/mL. Also, the EC50 in assay [1] came to 0.4 µg/mL (≈ 1.31 µM).

For `C[C@@H]1CCC[C@@H]2C[C@@H](NC(=O)c3cc4ccccc4cc3O)CCN21`, in the assay with Influenza A virus, the half-maximal cytotoxic concentration (CC50) is greater than 100 µg/mL. The EC50 entry in assay [2] is “Not Active”.

Turning to `C[C@@H]1CCC[C@@H]2C[C@@H](NC(=O)c3cccc(O)c3O)CCN21`, in the assay on Influenza A virus, half-maximal cytotoxicity (CC50) was put at 10 µg/mL (≈ 32.9 µM). For the same molecule, the concentration giving a half-maximal response (EC50) entry in assay [2] is “Not Active”. Molecule `C[C@@H]1CCC[C@@H]2C[C@@H](NC(=O)c3cc(Cl)cc(Cl)c3O)CCN21` yielded a 50% cytotoxic concentration (CC50) with Influenza A virus greater than 100 µg/mL. The molecule also showed a concentration giving a half-maximal response (EC50) in assay [1] of 10 µg/mL (≈ 28 µM). The molecule `C[C@@H]1CCC[C@@H]2C[C@@H](NC(=O)c3cc(C(=O)c4ccccc4)ccc3O)CCN21` gave a CC50 with Influenza A virus greater than 100 µg/mL. Also, in assay [2], the concentration giving a half-maximal response (EC50) result is reported as “Not Active”. Consider `C[C@@H]1CCC[C@@H]2C[C@@H](NC(=O)c3cc(C(F)(F)F)ccc3O)CCN21`, for which the half-maximal cytotoxic concentration (CC50) in the assay with Influenza A virus was greater than 100 µg/mL. Moreover, the 50% effective concentration (EC50) entry in assay [2] was “Not Active”. In the assay on Influenza A virus, `C[C@@H]1CCC[C@@H]2C[C@@H](NC(=O)c3cc(Cl)c(N)cc3O)CCN21` gave a CC50 greater than 100 µg/mL. In assay [1], this molecule showed a 50% effective concentration (EC50) of 1 µg/mL (≈ 2.96 µM).

`COc1cc(N)c(Cl)cc1C(=O)N[C@H]1CCN2[C@H](CCC[C@H]2C)C1` gave a 50% cytotoxic concentration (CC50) in the assay on Influenza A virus greater than 100 µg/mL. The 50% effective concentration (EC50) result in assay [2] is “Not Active”. In the case of `C=Cc1ccc(O)c(C(=O)N[C@H]2CCN3[C@H](CCC[C@H]3C)C2)c1`, in the assay on Influenza A virus, the CC50 was greater than 100 µg/mL. The molecule further yielded an EC50 in assay [1] of 2 µg/mL (≈ 6.36 µM). Turning to `Cc1cccc(C(=O)N[C@H]2CCN3[C@H](CCC[C@H]3C)C2)c1O`, in the assay on Influenza A virus, the half-maximal cytotoxic concentration (CC50) was greater than 100 µg/mL. The molecule further showed an EC50 in assay [1] of 8 µg/mL (≈ 26.5 µM). For `C[C@@H]1CCC[C@@H]2C[C@@H](NC(=O)c3c(O)cccc3F)CCN21`, the CC50 with Influenza A virus was greater than 100 µg/mL. This molecule yielded an EC50 in assay [1] of 10 µg/mL (≈ 32.6 µM). As for `C[C@@H]1CCC[C@@H]2C[C@@H](NC(=O)c3cc(-c4ccccc4)ccc3O)CCN21`, the half-maximal cytotoxic concentration (CC50) in the assay with Influenza A virus came out at 30 µg/mL (≈ 82.3 µM). Moreover, in assay [2], the 50% effective concentration (EC50) result was “Not Active”. In the assay on Influenza A virus, `CC(=O)Nc1ccccc1C(=O)N[C@H]1CCN2[C@H](CCC[C@H]2C)C1` displayed a CC50 greater than 100 µg/mL. The EC50 entry in assay [2] was “Not Active”. With `C[C@@H]1CCC[C@@H]2C[C@@H](NC(=O)c3cc(Cl)c(N=[N+]=[N-])cc3O)CCN21`, the EC50 result in assay [2] is “Not Active”. Consider `Cc1ccc(O)c(C(=O)N[C@H]2CCN3[C@H](CCC[C@H]3C)C2)c1`, for which the CC50 in the assay with Influenza A virus came out at 100 µg/mL (≈ 331 µM). Also, the concentration for a half-maximal effect (EC50) in assay [3] came out at 0.2 µg/mL (≈ 0.661 µM).

Consider `C[C@@H]1CCC[C@@H]2C[C@@H](NC(=O)c3ccc(N)cc3O)CCN21`, for which, in the assay with Influenza A virus, the CC50 was greater than 100 µg/mL. In assay [2], the 50% effective concentration (EC50) entry is on record as “Not Active”. Take `C[C@@H]1CCC[C@@H]2C[C@@H](NC(=O)c3cc(O)ccc3O)CCN21`: it took 50 µg/mL (≈ 164 µM) to reach half-maximal cytotoxicity with Influenza A virus (CC50). For the same molecule, the EC50 entry in assay [2] was “Not Active”.
